Assay results from US20250064891A1, “HOST PROTEASES ESSENTIAL FOR PARAINFLUENZA SPREAD IN THE HUMAN LUNG: POTENTIAL TARGETS FOR ANTIVIRAL INTERVENTIONS” (The Trustees of Columbia University in the City of New York, priority 2022, published 2025).
Entries after “also recorded” stand apart in the source; their conditions may differ.

How the values were obtained:
[1] = test system: HPIV3; assay: HPIV3 spread in intranasally infected cotton rats, viral titer of nasal tissue by plaque assay; conditions: intranasal nafamostat 3 mg/kg body weight daily, sacrificed 3 days after infection (FIG. 5)
Experimental: Viral titer (LogTCID50 per gram of nasal tissue) was determined by plaque assay. Values are means and SEM.

[2] = test system: serine proteases, such as TMPRSS2; assay: Inhibition of serine proteases (statement without method)
[3] = test system: HPIV3; assay: HPIV3 titer (infectious viral particles) released by infected Calu-3 cells / HAE treated with protease inhibitor; assay type: cell-based, human parainfluenza virus 3 (HPIV3); conditions: for production of infectious viral particles / viral spread (HPIV3 titer): Calu-3 cell culture media and HAE apical washes 3 days after infection (FIG. 3); for viral titer: virions released by infected Calu-3 cells into the media (FIG. 8A)
From the text: Values are means and SEM from one biological replicate.

[4] = test system: HPIV3 F; conditions: for HPIV3 F cleavage: Calu-3 cells and HAE inoculated with HPIV-3 F E108 or F K108, treated after inoculation (FIG. 3); for HPIV3 F E108 (F0) cleavage: Western blot of Calu-3 cell media (FIG. 8B)
Experimental: (A) Calu-3 cells and (B) HAE were inoculated with HPIV-3 F E108 (left) or HPIV-3 F K108 (right). After inoculation, cells were treated with the indicated concentrations of aprotinin or leupeptin. HPIV3 infected Calu-3 cell culture media and HAE apical wash resolved by reducing SDS-PAGE and immunoblotted with anti-HPIV3 F antibody. HPIV3 titer in cell culture media and HAE apical washes 3 days after infection. Values are means and SEM from 1-3 biological replicates.
Virions released by the infected cells into the media were titered. B) Western blotting for HPIV3 F in Calu-3 cell media.

## N=C(N)c1ccc2cc(OC(=O)c3ccc(N=C(N)N)cc3)ccc2c1 [Nafamostat]
[1]
  HPIV3 spread in vivo (viral titer, LogTCID50 per gram of nasal tissue): reduced HPIV3 spread in nasal tissue of cotton rats; also recorded: blocks HPIV3 spread in vivo

## CN(C)C(=O)COC(=O)Cc1ccc(OC(=O)c2ccc(NC(=N)N)cc2)cc1 [camostat]
[2]
  inhibition of serine proteases, such as TMPRSS2: effective inhibitors of serine proteases

## CC(=O)N[C@@H](CC(C)C)C(=O)N[C@@H](CC(C)C)C(=O)N[C@H](C=O)CCCNC(=N)N [leupeptin]
[3]
  production of infectious viral particles / viral spread (HPIV3 titer): inhibited viral spread; also recorded: reduces production of infectious viral particles
  viral titer: reduced viral titer
[2]
  inhibition of serine proteases, such as TMPRSS2: effective inhibitors of serine proteases
[4]
  HPIV3 F cleavage: block HPIV3 F cleavage
  HPIV3 F E108 (F0) cleavage: reduced HPIV3 F E108 cleavage

## aprotinin
[3]
  production of infectious viral particles / viral spread (HPIV3 titer): inhibited viral spread; also recorded: reduces production of infectious viral particles
  viral titer: reduced viral titer; also recorded: dose-dependent reduction in viral titer
[2]
  inhibition of serine proteases, such as TMPRSS2: effective inhibitors of serine proteases
[4]
  HPIV3 F cleavage: block HPIV3 F cleavage
  HPIV3 F E108 (F0) cleavage: reduced HPIV3 F E108 cleavage; also recorded: significant reduction in F0 cleavage
